Measured values: patent publication US20160282364A1, “ASSAY FOR INSULIN-DEGRADING ENZYME (IDE) INHIBITORS” (PRESIDENT AND FELLOWS OF HARVARD COLLEGE, priority 2013, published 2016)
Where “and” joins values, the source holds several entries; their conditions need not be identical. Equal entries are not always repeated. Where two headings read alike, the source gives them in different places. Ends that are not written are not given here.

Legend:
hIDE WT = target: T1, hIDE WT (Homo sapiens, UniProt P14735); assay: Small molecule-enzyme mutant complementation study, wild type; format: biochemical
T1 construct: The reported N-His6-tagged human IDE42-1019 construct; made in house; host or cells: E. coli Rosetta 2 (DE3) pLysS
Description: (§1) Protease assays with fluorogenic peptide substrates. […] All assay data points were obtained in duplicate.
(§2) Site-directed mutagenesis, expression, and purification of human IDE. The reported N-His6-tagged human IDE42-1019 construct was introduced in the expression plasmid pTrcHis-A (Invitrogen) using primers for uracil-specific excision reactions (USER) by Taq (NEB) and Pfu polymerases (PfuTurbo CX®, Agilent). The IDE gene was amplified with the primers 5′-[…]-dU-[…] and 5′-[…] G-dU-[…] (underlined sequences represent overhangs, and italics highlight the PCR priming sequence). Similarly, the pTrcHis-A vector was amplified for USER cloning with the primers 5′-[…] TGA-dU-[…] CCC and 5′-[…]-dU-[…]. Mutant IDE constructs were generated by amplifying the full vector construct with USER cloning primers introducing a mutant overhang (Table 5).
(§3) All PCR products were purified on microcentrifuge membrane columns (MinElute®, Qiagen) and quantified by UV absorbance (NanoDrop). Each fragment (0.2 pmol) was combined in a 10 μL reaction mixture containing 20 units DpnI (NEB), 0.75 units of USER mix (Endonuclease VIII and Uracil-DNA Glycosylase, NEB), 20 mM Tris-acetate, 50 mM potassium acetate, 10 mM magnesium acetate, 1 mM dithiothreitol at pH 7.9 (1× NEBuffer 4). The reactions were incubated at 37° C. for 45 min, followed by heating to 80° C. and slow cooling to 30° C. (0.2° C./s). The hybridized constructs were directly used for heat-shock transformation of chemically competent NEB turbo E. coli cells according to the manufacturer's instructions. Transformants were selected on carbenicillin LB agar, and isolated colonies were cultured overnight in 2 mL LB.
(§4) The plasmid was extracted using a microcentrifuge membrane column kit (Miniprep®, Qiagen), and the sequence of genes and vector junctions were confirmed by Sanger sequencing (Table 6). The plasmid constructs were transformed by heat-shock into chemically-competent expression strain Rosetta 2 (DE3) pLysS E. coli cells (EMD Millipore), and selected on carbenicillin/chloramphenicol LB agar. Cells transformed with IDE pTrcHis A constructs were cultured overnight at 37° C. in 2 XYT media (31 g in 1 L) containing 100 μg/mL ampicillin and 34 μg/mL chloramphenicol. Expression of His6-tagged IDE proteins was induced when the culture measured OD600 ˜0.6 by addition of isopropyl-β-D-1-thiogalactopyranoside (IPTG) to 1 mM final concentration, incubated overnight at 37° C., followed by centrifugation at 10,000 g for 30 min at 4° C.
(§5) Recombinant His6-tagged proteins were purified by Ni(II)-affinity chromatography (IMAC sepharose beads, GE Healthcare®) according to the manufacturer's instructions. The cell pellets were resuspended in pH 8.0 buffer containing 50 mM phosphate, 300 mM NaCl, 10 mM imidazole, 1% Triton X-100 and 1 mM tris(2-carboxyethyl)phosphine hydrochloride (TCEP), and were lysed by probe sonication for 4 min at 4° C., followed by clearing of cell debris by centrifugation at 10,000 g for 25 min at 4° C. The supernatant was incubated with Ni(II)-doped IMAC resin (2 mL) for 3 h at 4° C. The resin was washed twice with the cell resuspension/lysis buffer, and three times with pH 8.0 buffer containing 50 mM phosphate, 300 mM NaCl,50 mM imidazole and 1 mM TCEP. Elution was performed in 2 mL aliquots by raising the imidazole concentration to 250 mM and subsequently to 500 mM in the previous buffer. The fractions were combined and the buffer was exchanged to the recommended IDE buffer (R&D) using spin columns with 100 KDa molecular weight cut off membranes (Millipore). Protein yields were typically ˜10 μg/L, and >90% purity based on gel electrophoresis analysis (Coomassie stained).

hIDE A198T = target: T2, hIDE A198T (Homo sapiens, UniProt P14735, A198T); assay: Small molecule-enzyme mutant complementation study; format: biochemical; conditions: A198T vs hIDE WT, batch 2
T2 construct: The reported N-His6-tagged human IDE42-1019 construct; made in house; host or cells: E. coli Rosetta 2 (DE3) pLysS
Description: as §1, §2, §3, §4, §5

hIDE F202L = target: T3, hIDE F202L (Homo sapiens, UniProt P14735, F202L); assay: Small molecule-enzyme mutant complementation study; format: biochemical; conditions: F202L vs hIDE WT, batch 1
T3 construct: The reported N-His6-tagged human IDE42-1019 construct; made in house; host or cells: E. coli Rosetta 2 (DE3) pLysS
Description: as §1, §2, §3, §4, §5

hIDE F202R = target: T4, hIDE F202R (Homo sapiens, UniProt P14735, F202R); assay: Small molecule-enzyme mutant complementation study; format: biochemical; conditions: F202R vs hIDE WT, batch 2
T4 construct: The reported N-His6-tagged human IDE42-1019 construct; made in house; host or cells: E. coli Rosetta 2 (DE3) pLysS
Description: as §1, §2, §3, §4, §5

hIDE I310R = target: T5, hIDE I310R (Homo sapiens, UniProt P14735, I310R); assay: Small molecule-enzyme mutant complementation study; format: biochemical; conditions: I310R vs hIDE WT, batch 2
T5 construct: The reported N-His6-tagged human IDE42-1019 construct; made in house; host or cells: E. coli Rosetta 2 (DE3) pLysS
Description: as §1, §2, §3, §4, §5

hIDE K364A = target: T6, hIDE K364A (Homo sapiens, UniProt P14735, K364A); assay: Small molecule-enzyme mutant complementation study; format: biochemical; conditions: K364A vs hIDE WT, batch 2
T6 construct: The reported N-His6-tagged human IDE42-1019 construct was introduced in the expression plasmid pTrcHis-A; made in house; host or cells: E. coli Rosetta 2 (DE3) pLysS
Description: as §1, §2, §3, §4, §5

hIDE W199F = target: T7, hIDE W199F (Homo sapiens, UniProt P14735, W199F); assay: Small molecule-enzyme mutant complementation study; format: biochemical; conditions: W199F vs hIDE WT, batch 2
T7 construct: The reported N-His6-tagged human IDE42-1019 construct; made in house; host or cells: E. coli Rosetta 2 (DE3) pLysS
Description: as §1, §2, §3, §4, §5

IDE [1] = target: IDE (Homo sapiens, UniProt P14735); assay: Protease assay with fluorogenic peptide substrate Mca-[…](Dnp)-OH (IDE species not given); format: biochemical; set-up: The proteases IDE42-1019, recombinant human IDE42-1019 (R&D Systems); conditions: heavy-labeled vs 6bK
Description: All data points and error bars represent mean±SEM. Significance tests were performed using two-tail Student's t-test, and significance levels shown in the figures are p<0.05 (*) or p<0.01 (**) versus the vehicle-only control group. The in vitro selection of the DNA-templated macrocycle libraryl^16,17 used 20 μg His6-tagged mouse IDE immobilized on cobalt magnetic beads (Dynabeads, Invitrogen). IDE proteolytic activity was assayed with fluorogenic peptide Mca-[…](Dnp)-OH (R&D). IDE inhibition was confirmed using an anti-insulin antibody time-resolved FRET assay (Cysbio), and using an LCMS assay for CGRP cleavage fragments CGRP1-17 and CGRP18-37 in plasma^18. […] Protease assays with fluorogenic peptide substrates. […] (R&D). All assay data points were obtained in duplicate.

IDE [2] = conditions: cited from earlier work; for KM / Km / kcat: IDE substrate; for Degradation: degradation kinetics compared to insulin
IDE [3] = conditions: inhibition of insulin degradation, cited from earlier work
IDE [4] = assay: Literature survey of IDE substrates, in vitro degradation kinetics; format: biochemical; conditions: KM estimated based on IC50 for inhibition of insulin degradation

T1 sequence (P14735 42-1019): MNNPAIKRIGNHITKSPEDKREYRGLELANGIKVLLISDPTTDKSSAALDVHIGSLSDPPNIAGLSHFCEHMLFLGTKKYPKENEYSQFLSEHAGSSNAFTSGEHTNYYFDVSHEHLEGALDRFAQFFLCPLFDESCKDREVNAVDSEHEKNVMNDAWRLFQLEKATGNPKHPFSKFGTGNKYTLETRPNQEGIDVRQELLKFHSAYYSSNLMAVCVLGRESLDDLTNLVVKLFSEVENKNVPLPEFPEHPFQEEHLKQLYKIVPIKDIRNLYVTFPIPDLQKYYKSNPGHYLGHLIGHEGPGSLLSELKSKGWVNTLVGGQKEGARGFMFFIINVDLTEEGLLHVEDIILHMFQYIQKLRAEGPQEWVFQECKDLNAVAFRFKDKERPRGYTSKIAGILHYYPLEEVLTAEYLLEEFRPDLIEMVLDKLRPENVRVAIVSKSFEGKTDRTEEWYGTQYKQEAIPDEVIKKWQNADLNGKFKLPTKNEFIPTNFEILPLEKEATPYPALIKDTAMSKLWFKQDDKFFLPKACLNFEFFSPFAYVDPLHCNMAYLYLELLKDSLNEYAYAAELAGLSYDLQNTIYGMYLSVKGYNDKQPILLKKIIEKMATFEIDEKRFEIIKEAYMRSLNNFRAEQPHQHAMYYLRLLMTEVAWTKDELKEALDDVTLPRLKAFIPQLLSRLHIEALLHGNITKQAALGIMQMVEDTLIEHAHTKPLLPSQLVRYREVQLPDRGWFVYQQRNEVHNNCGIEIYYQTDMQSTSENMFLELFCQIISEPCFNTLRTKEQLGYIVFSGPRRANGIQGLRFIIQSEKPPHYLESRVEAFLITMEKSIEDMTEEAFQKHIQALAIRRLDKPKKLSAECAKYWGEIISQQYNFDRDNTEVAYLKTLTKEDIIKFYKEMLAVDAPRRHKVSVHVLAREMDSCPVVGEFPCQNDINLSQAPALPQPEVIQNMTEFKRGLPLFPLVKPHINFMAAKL
T3 sequence (P14735 42-1019 F202L): as the sequence (P14735 42-1019) above, with F161L counted along it
T6 sequence (P14735 42-1019 K364A): as the sequence (P14735 42-1019) above, with K323A counted along it
T5 sequence (P14735 42-1019 I310R): as the sequence (P14735 42-1019) above, with I269R counted along it
T4 sequence (P14735 42-1019 F202R): as the sequence (P14735 42-1019) above, with F161R counted along it
T7 sequence (P14735 42-1019 W199F): as the sequence (P14735 42-1019) above, with W158F counted along it
T2 sequence (P14735 42-1019 A198T): as the sequence (P14735 42-1019) above, with A157T counted along it
Chain of IDE (Homo sapiens, UniProt P14735) (P14735 42-1019): as the sequence (P14735 42-1019) above

CC(C)(C)c1ccc(CC2NC(=O)C(CC3CCCCC3)NC(=O)C(CCC(N)=O)NC(=O)C=CC(=O)NC(C(N)=O)CCCCNC2=O)cc1 (centres unmarked) [Compound 9]
IC50 shift (hIDE WT; batch 1 (reference)): 1.0 fold

CC(C)CC1NC(=O)C(CCC(N)=O)NC(=O)C=CC(=O)NC(C(N)=O)CCCCNC(=O)C(Cc2ccc(C(=O)c3ccccc3)cc2)NC1=O (centres unmarked) [Compound 13]
IC50 shift (hIDE WT; batch 1 (reference)): 1.0 fold | IC50 shift (hIDE WT; batch 2 (reference)): 1.0 fold | IC50 shift (hIDE WT; batch 3 (reference)): 1.0 fold | IC50 shift (hIDE A198T): 13.6 fold | IC50 shift (hIDE F202L): 2.3 fold | IC50 shift (hIDE F202R): 4.1 fold | IC50 shift (hIDE I310R): 0.7 fold | IC50 shift (hIDE K364A): 10.0 fold | IC50 shift (hIDE W199F): 3.2 fold

NC(=O)C1CCCCNC(=O)C(Cc2ccc(C(=O)c3ccccc3)cc2)NC(=O)C(CC2CCCCC2)N[13C](=O)[13CH]([13CH2][13CH2][13CH2][13CH2][15NH2])[15NH]C(=O)C=CC(=O)N1 (centres unmarked) [heavy 6bK]
IC50 compared with 6bK (IDE [1]): identical

B-type natriuretic peptide [B-type NP (BNP)]
KM (IDE [2]): weak | Degradation (IDE [2]): Slow | IC50 (IDE [3]; read-out: IC50): > 1000 nM

amylin (KCNTATCATQRLANFLVHSSNNFGAILSSTNVGSNTY; not fully specified (C-terminus, bridges); cysteine pairing not given here; UniProt P10997 34-70, looked up) [IDE substrate in vitro]
Km (IDE [2]): ~0.3 µM | Degradation (IDE [2]): Medium | Km (IDE [4]): 0.3 µM | IC50 (IDE [3]; read-out: IC50): 160 nM

amyloid-β peptide(40/42) [Aβ (40, 42)]
Km (IDE [2]): 1.23 µM | kcat (IDE [2]): 0.867 s⁻¹ | Degradation (IDE [2]): Fast

atrial natriuretic peptide [atrial NP (ANP)]
Km (IDE [2]): 0.06 µM | Degradation (IDE [2]): Fast

bradykinin (RPPGFSPFR; Bradykinin; UniProt P01042 381-389, looked up) [IDE substrate in vitro]
Km (IDE [2]): 4.2 µM | Degradation (IDE [2]): Slow

dynorphin A (1-8) (YGGFLRRI; Dynorphin A(1-8); UniProt P01213 207-214, looked up) [IDE substrate in vitro]
Km (IDE [2]): 63.5 µM | kcat (IDE [2]): 0.011 s⁻¹

dynorphin A (1-9)
Km (IDE [2]): 60.5 µM | kcat (IDE [2]): 0.0055 s⁻¹

dynorphin A (1-10)
Km (IDE [2]): 39.4 µM | kcat (IDE [2]): 0.0623 s⁻¹

dynorphin A (1-13) (YGGFLRRIRPKLK; Dynorphin A(1-13); UniProt P01213 207-219, looked up) [IDE substrate in vitro]
Km (IDE [2]): 40.6 µM | kcat (IDE [2]): 0.0623 s⁻¹

dynorphin A (1-17)
Km (IDE [2]): 37.4 µM | kcat (IDE [2]): 0.307 s⁻¹

dynorphin B (1-9) (YGGFLRRQF; Rimorphin; UniProt P01213 226-234, looked up, fragment) [IDE substrate in vitro]
Km (IDE [2]): 26.8 µM | kcat (IDE [2]): 0.172 s⁻¹

dynorphin B (1-13)
Km (IDE [2]): 18.3 µM | kcat (IDE [2]): 0.252 s⁻¹

glucagon
Km (IDE [2]): 3.5 µM and 3.46 µM | kcat (IDE [2]): 0.633 s⁻¹ and 0.642 s⁻¹ | Degradation (IDE [2]): Slow | IC50 (IDE [3]): weak

growth hormone releasing factor (1-29)
Km (IDE [2]): 11.9 µM | kcat (IDE [2]): 0.39 s⁻¹ | Degradation (IDE [2]): Slow

insulin
Km (IDE [2]): < 0.03 µM | kcat (IDE [2]): 0.0253 s⁻¹ | Degradation (IDE [2]): Fast

insulin-like growth factor-1 [IGF-1]
KM (IDE [2]): Weak | Degradation (IDE [2]): Slow

insulin-like growth factor-2 [IGF-2]
Degradation (IDE [2]): Fast | Km (IDE [4]): 0.1 µM | IC50 (IDE [3]; read-out: IC50): 60 nM

kallidin
Km (IDE [2]): 7.3 µM | Degradation (IDE [2]): Slow

pancreastatin (1-49) (SEALAVDGAGKPGAEEAQDPEGKGEQEHSQQKEEEEEMAVVPQGLFRGG; Pancreastatin; UniProt P10645 272-320, looked up, fragment) [IDE substrate in vitro]
Km (IDE [2]): 41.7 µM | kcat (IDE [2]): 0.177 s⁻¹ | Degradation (IDE [2]): Slow

relaxin
Degradation (IDE [2]): Fast | Km (IDE [4]): 0.11 µM | IC50 (IDE [3]; read-out: IC50): 54 nM

relaxin-3
Degradation (IDE [2]): Fast | Km (IDE [4]): 0.36 µM | IC50 (IDE [3]; read-out: IC50): 182 nM

somatostatin-14
Km (IDE [2]): 7.5 µM | kcat (IDE [2]): 0.38 s⁻¹ | Degradation (IDE [2]): Slow

transforming growth factor-alpha [TGF-α]
Degradation (IDE [2]): Fast | Km (IDE [4]): 0.15 µM | IC50 (IDE [3]; read-out: IC50): 80 nM

β-endorphin (1-31)
Km (IDE [2]): 13 µM | kcat (IDE [2]): 0.35 s⁻¹ | Degradation (IDE [2]): Slow
